Experimental data: patent publication US20120034210A1, “COMPOSITIONS FOR POTENTIATING APOPOSIS SIGNALS IN TUMOUR CELLS” (INSTITUT BERGONIE, priority 2008, published 2012)
Entries after “also recorded” stand apart in the source; their conditions may differ. Peptide text beside a SMILES is read from it. * marks the point of attachment. Cbz = O=C(OCc1ccccc1)*

Key:
[1] = system: DISC macro-complex (Fas/FADD/Caspase-8); experiment: DISC formation: Fas immunoprecipitation and Western blot; format: cell-based, human; details: for recruitment of FADD and DISC formation: non-permeant chelators lowering extracellular calcium
Experimental: Cells were incubated with 1 μg/ml APO1-3 for 30 minutes at 4° C. After washing, cells were incubated for 15 minutes at 4° C. (0 minutes) or at 37° C. (15 minutes) and then lysed for 30 minutes at 4° C. in a lysis buffer (25 mM HEPES pH 7.4, 1% Triton X-100, 150 mM NaCl, 2 mM EDTA, a cocktail including protease inhibitors (Sigma)). The lysed cells were then centrifugated for 15 minutes at 15000 rpm in order to eliminate genomic DNA, and the supernatant was kept. The sepharose beads which were coupled with protein A were added to the lysate and the mixture was incubated for 2 hours. The beads were recovered, washed intensively and the immunoprecipitated proteins were re-suspended in a denaturing and reducing buffer (0.01M Tris-HCl pH6.8, 10% glycerol (v/v), 85 mM sodium dodecyl sulfate (SDS), 5% (v/v) […] and 0.005% (w/v) bromophenol blue) then heated at 100° C. for 5 minutes. The samples were deposited in an acrylamide/Bisacrylamide gel and separated by electrophoresis. The proteins were transferred from the gel into a nitrocellulose membrane using a semi-dry medium transfer technique for 2 hours at constant amperage (0.8 mA/cm^2). […] After transfer, the nitrocellulose membrane was saturated with proteins for 30 minutes with a TBST buffer (50 mM Tris pH=8, 0.15M sodium chloride, 0.05% (v/v) Tween-20) containing 5% (w/v) skimmed powdered milk (TBSTM). After washing with TBST, the membrane was incubated for 2 hours with the primary antibody in TBST. The membrane was washed intensively then incubated for one hour with TBST containing the secondary peroxidase-coupled antibody. […] This solution contained a substrate metabolised by peroxidase to yield a luminescent compound, which allowed marking a radiographic film (Amersham).

[2] = system: T and B leukemia/lymphoma cell lines and activated PBLs treated with FasL; experiment: Fas/CD95-mediated cell death (MTT test); format: cell-based, human; details: for sensitivity to the CD95-mediated apoptotic signal (% cell death): down-modulation of extracellular calcium, T and B-cell lines, vs untreated
Experimental: 2 to 4.10^4 cells were deposited in wells in a 96-well plate. The cells were incubated, in the presence of the different reactants for the times specified, at 37° C. in a final volume of 100 or 200 μl.
The MTT test enabled to measure the activity of a mitochondrial enzyme, the dehydrogenase succinate which transforms MTT (or 3-(4,5-dimethylthiazol-2-yl)-2,5-diphenyltetrazolium) bromide originally yellow in colour and soluble, into blue formazan crystals, insoluble in aqueous phase. Upon completion of the different treatments, the living cells were quantified by adding in each well 15 μl PBS (Phosphate Buffered Saline) containing 5 mg/ml MTT. […] Spectrophotometric reading of absorbance was done at 570 nm. The measurement of the optical density is directly proportional to the number of living cells and the percentage of cell death was calculated with the following formula: 100-[(DO treated cells/DO non-treated cells)*100].

[3] = system: Raji, BL2, Jurkat cell lines and activated PBL; experiment: Apoptosis % by loss of mitochondrial membrane potential; format: cell-based, human; details: for induction of cell death via DR4/DR5 with calcium chelation: BL2 cell line, 24 h, prior incubation 15 minutes BAPTA-AM 1 μM
Experimental: 2 to 4.10^4 cells were deposited in wells in a 96-well plate. The cells were incubated, in the presence of the different reactants for the times specified, at 37° C. in a final volume of 100 or 200 μl. The apoptotic cells were identified in the cellular populations by measuring mitochondrial de-polarisation. […] These potentiometric probes allowed monitoring the variations of the mitochondrial membrane potential. […] Following cell treatment with the different drugs, the former were placed in the presence of TMRM or DIOC6 at 10 nM concentration, for 20 minutes at 37° C. then the fluorescence of the cells was analysed by flow cytometry.

Raji cells = experiment: Raji B lymphoma tumour growth in Rag2-/-γ-/- mice; format: in vivo; details: Raji s.c.; single agent; Rituximab 2 mg/kg, Zoledronate 4 mg/kg
Experimental: The implantation of the tumours was done subcutaneously in Rag2−/−γ−/− mice flank aged from 5 to 7 weeks. Following implantation of the tumours, the mice were divided in groups of 8 to 10 animals for each treatment. The size of the tumour was assessed every day by measuring its width (w) and its length (I). Its volume was calculated according to the formula: V=lw^2/2. At the end of the experiment, the animals were sacrified, the tumour weight was measured.
From 10^6 Raji cells were implanted subcutaneously in mice flank. The effects of Rituximab alone, of Zoledronate alone, are assessed on the growth of tumours. Rituximab (2 mg/kg) was delivered 3 times a week, Zoledronate was delivered 1 time a week.

[4] = system: intracellular calcium concentration; experiment: Intracellular Ca2+ concentration, indo-1 (micro)spectrofluorimetry; format: cell-based, human
Experimental: Principle: [Ca^2+]i was measured by microspectrofluorimetry using a calcium sensitive fluorescent probe: indo-1. When excited at 360 nm wavelength, the so-called monoexcitation/double emission indo-1 probe transmitted back in a spectrum ranging from 400 to 500 nm. Binding of Ca^2+ to indo-1 caused displacement of the emission spectrum after excitation. The emission maximum in the unbound form was located around 480 nm. The emission of the complexed form was around 405 nm. An increase of calcium concentration thus caused the emission to increase to 405 nm and the emission to decrease to 480 nm. The ratio of both fluorescence intensities allowed to be independent from the quantity of the probe and to determine the [Ca^2+]i according to the Grynkiewicz equation:
[Ca^2+]i(nM)=Kd.β×(R−Rmin)/(Rmax−R)
Rmax, Rmin and Kd. β were determined by combining electrophysiology (patch clamp) and spectrofluorimetry. Rmax was determined by placing in the patch pipette a medium containing 10 mM CaCl2. Rmin was obtained by placing as an intrapipette solution a calcium-deprived medium (10 mM EGTA).
The cells were then rinsed with HBSS (800 rpm centrifugation for 2 minutes) and placed in an observation chamber on a glass coverslip. […] The excitation light is supplied by a Xenon lamp (100W). […] The substances to be tested were applied using a glass pipette positioned at some twenty μm of the studied cell and connected to a pneumatic system.
The principle as well as the loading of the cells were identical with the measurement on single cells. In such a case, approx. 40,000 cells were placed in a quartz tub under constant agitation. The tub was then placed in a Hitachi spectrofluorimeter whereof the excitation monochromator was set to 350 nm. […] The signals were transmitted to a computer via an analogue/digital converter. So as to be able to apply the Grynkiewicz equation (see above) and translate the fluorescence ratios measured in calcium values, the calibration parameters were entered into the software. The substances to be tested were applied directly in the tube under constant agitation.

With `O=C(O)CN(CC(=O)O)c1ccccc1OCCOc1ccccc1N(CC(=O)O)CC(=O)O` [BAPTA, 1,2-bis(o-aminophenoxy)ethane-N,N,N′,N′-tetraacetic acid] the “recruitment of FADD and DISC formation” value ([1]; H9 cells, CD95 stimulation) was “enhanced the recruitment of FADD and the DISC formation; also recorded: enhanced recruitment of FADD as well as enhanced DISC formation” and the “sensitivity to the CD95-mediated apoptotic signal (% cell death)” value [2] was “increased the sensitivity of T and B-cell lines to the CD95-mediated apoptotic signal”.

`O=C(O)CN(CCOCCOCCN(CC(=O)O)CC(=O)O)CC(=O)O` [EGTA, glycol-bis(2-aminoethylether)-N,N,N′,N′-tetraacetic acid] was tested, and the “recruitment of FADD and DISC formation” value ([1]; H9 cells, CD95 stimulation) was “enhanced the recruitment of FADD and the DISC formation; also recorded: enhanced recruitment of FADD as well as enhanced DISC formation” and the “sensitivity to the CD95-mediated apoptotic signal (% cell death)” value [2] was “increased the sensitivity of T and B-cell lines to the CD95-mediated apoptotic signal”.

`CC(C)C[C@@H](C=O)NC(=O)[C@H](CC(C)C)NC(=O)[C@H](CC(C)C)NC(=O)OCc1ccccc1` [MG132] (Cbz-Leu-Leu-Leu-aldehyde) was tested, and the “induction of cell death via DR4/DR5 with calcium chelation” value (from here on “induction … with calcium chelation”) [3] was “potentiated by calcium chelation”.

`Clc1ccc(C(c2ccc(Cl)cc2)n2cc[n+](CC(OCc3ccc(Cl)cc3Cl)c3ccc(Cl)cc3Cl)c2)cc1` (stereo not shown) [calmidazolium] was tested, and the “effect on CD95-mediated apoptotic signal” value ([2]; calmodulin antagonist or CaMKII inhibitory peptide) was “did not alter the CD95-mediated apoptotic signal”.

In the case of `CNCCC(Oc1ccc(C(F)(F)F)cc1)c1ccccc1` (stereo not shown) [fluoxetine], the “induction … with calcium chelation” value [3] is reported as “potentiated by calcium chelation”.

For `C[C@H](CCC(=O)O)C[C@H](C)C[C@H](C)C(=O)/C=C(\O)[C@H](C)C[C@H](C)C/C=C/[C@@H](C)[C@@H](O)[C@@H](C)[C@@H](O)C[C@@H]1CC[C@@](C)([C@H]2CC[C@@](C)([C@@H](C)O)O2)O1` [ionomycine], the “DISC formation / FADD recruitment upon CD95 stimulation” value ([1]; H9, Jurkat, activated PBTs, non-cytotoxic concentrations, vs untreated cells) was “prevented the recruitment of FADD to CD95 and the DISC formation; also recorded: absence of FADD recruitment and DISC formation”, the “formation of the DISC macro-complex” value ([1]; H9 cells, BAPTA-AM 1-10 μM or ionomycine 1 μM pre-incubation, then anti-Fas APO1-3 1 μg/ml 15 min 37° C., vs untreated cells) was “interfered with the formation of the DISC complex” and the “FADD binding and activation of caspase-8” value ([1]; H9 cells, ionomycine 1 μM, anti-Fas APO1-3) was “decreased the FADD binding and the activation of caspase-8”.

`Oc1ccc(C=Cc2cc(O)cc(O)c2)cc1` [resveratrol] was tested, and the “induction … with calcium chelation” value [3] was “potentiated by calcium chelation”.

In the case of `C1CCC[C@H]2CCCN3CC[C@@H](CCCCCC[C@@H]4CCCN5CC[C@@H](CC1)O[C@@H]45)O[C@@H]23` [xestospongin C], the “FADD binding to CD95” value ([1]; IP3-R antagonist, CD95 stimulation) is reported as “significantly promoted FADD binding to CD95; also recorded: significant increase in FADD binding to CD95”.

“Rituximab: anti-CD20 monoclonal antibody” was tested, and the “death signalling and apoptosis induced by Rituximab in low calcium medium” value ([3]; Raji, defined medium 0.5 mM vs 4 mM calcium) was “allowed potentiating the death signalling and apoptosis”, the “cell death signal induced by Rituximab with added extracellular calcium” value ([3]; Raji, medium 3 mM vs 0.8 mM calcium) was “inhibited the cell death signal” and the “tumour mass vs vehicle” value (Raji cells) was “not significantly affected”.

B1: TRAIL: soluble recombinant human TRAIL (TNF-related Apoptosis-Inducing Ligand), binds DR4 or DR5 (protein, UniProt P50591 39-281, looked up)
extracellular domain: TNELKQMQDKYSKSGIACFLKEDDSYWDPNDEESMNSPCWQVKWQLRQLVRKMILRTSEETISTVQEKQQNISPLVRERGPQRVAAHITGTRGRSNTLSSPNSKNEKALGRKINSWESSRSGHSFLSNLHLRNGELVIHEKGFYYIYSQTYFRFQEEIKENTKNDKQMVQYIYKYTSYPDPILLMKSARNSCWSKDAEYGLYSIYQGGIFELKENDRIFVSVTNEHLIDMDHEASFFGAFLVG
modifications: extracellular domain
In the case of B1, the “induction … with calcium chelation” value [3] is reported as “potentiated by calcium chelation”.

B2: CD95L: soluble CD95 ligand (Fas ligand), gp190-CD95L generated by Legembre et al. (protein, UniProt P48023 103-281, looked up)
extracellular domain: QLFHLQKELAELRESTSQMHTASSLEKQIGHPSPPPEKKELRKVAHLTGKSNSRSMPLEWEDTYGIVLLSGVKYKKGGLVINETGLYFVYSKVYFRGQSCNNLPLSHKVYMRNSKYPQDLVMMEGKMMSYCTTGQMWARSSYLGAVFNLTSADHLYVNVSELSLVNFEESQTFFGLYKL
modifications: extracellular domain gp190 fusion
B2 was tested, and the “intracellular calcium peak upon CD95L” value ([4]; H9 and Jurkat, rapid and transient, basal level 100 to 150 nM) was “up to 700 nM”, the “calcium response to CD95L” value ([4]; Jurkat CD95-Q257K vs parental cell line) was “the calcium response remained unaltered” and the “increase in [Ca2+]i upon CD95L” value ([4]; cells devoid of FADD, caspase-8 or caspase-8 and -10) was “did not display any modification of the increase in [Ca^2+]i”.
